Test results published in US20130131161A1, “METHODS AND COMPOSITIONS FOR CARDIOVASCULAR DISEASES AND CONDITIONS” (priority 2009, published 2013).

Test system: Human umbilical vein endothelial cells (HUVECs)
Assay: eNOS activity analysis: NO, ONOO− and NO/ONOO− release from HUVECs of 50 genotyped donors in response to LA-419 (Example 2)
Assay type: cell-based
Experimental: Concurrent measurements of NO and ONOO^− were carried out with tandem electrochemical nanosensors combined into one working unit with a total diameter of 200-500 nm (FIG. 1). Their design was based on previously developed and well-characterized chemically modified carbon-fiber technology (Malinski and Taha, 1992; Lvovich and Scheeline, 1997). Each of the nanosensors was made by depositing a sensing material on the tip of a carbon fiber (length 4-5 μm, diameter 0.2-0.5 μm). The fibers were sealed with nonconductive epoxy and electrically connected to copper wires with conductive silver epoxy. A conductive film of polymeric nickel (II) tetrakis(3-methoxy-4-hydroxyphenyl)porphyrin for the NO-sensor and polymeric film of Mn (III) [2.2]paracyclophanylporphyrin was used for the ONOO^−-sensor.
A module of NO/ONOO^− nanosensors (diameter 1-2 μm) with a platinum wire (0.1 mm) counter electrode and saturated calomel reference electrode (SCE) were applied. Differential pulse voltammetry (DPV) and amperometry were performed with a computer-based Gamry VFP600 multichannel potentiostat. DPV was used to measure the basal NO and ONOO^− concentrations, and amperometry was used to measure changes in NO and ONOO^− concentrations from its basal level with time. The DPV current at the peak potential characteristic for NO oxidation (0.65 V) and ONOO^− reduction (−0.45 V) was directly proportional to the local concentrations of these compounds in the immediate vicinity of the sensor. Linear calibration curves (current vs. concentration) were constructed for each sensor from 10 nM to 3 μM before and after measurements with aliquots of NO and ONOO^− standard solutions, respectively. The detection limit of the sensors was 1.0 nM.
The quantification of each analyte (concentration in nM) was performed using a maximum current from amperograms and standard calibration curves. A reproducibility of measurements with nanosensors is relatively high (between 5-12%). […] The sensors were slowly raised 5±2 μm from the surface of a single endothelial cell. The eNOS agonist, calcium ionophore A23187 (CaI) as well as the different drugs were then added to the surrounding media at the cell surface with a nanoinjector that was also positioned by a computer controlled-micromanipulator.
This example describes the genotype-specific response of the three major eNOS variants to 1 μM and 5 μM concentrations of LA-419. The three major genetic polymorphisms studied were the Glu298Asp variant (E298D or 894G→T) in exon 7 of […], the −786T→C variant in the promoter region, and the intron 4 polymorphism (VNTR). All of these variants have possible effects on the cardiovascular system and endothelial dysfunction. For this study, human umbilical vein endothelial cells (HUVECs) from 50 donors between 18 and 32 years of age were used.
For the analysis several analysis techniques were employed. First, the effect of genotype on NO and ONOO^− release was explored within the different concentrations of LA-419 (control, 1 μM, 5 μM), calculated as the average peak release (nmols/L) of NO, ONOO^−, and NO/ONOO^−. The effect of genotype on the net increase in NO, ONOO^−, and NO/ONOO^− for LA-419 (1 μM and 5 μM) as compared to control was also measured. In addition, an analysis was done on the effect of genotype on the % change in NO, ONOO^−, and NO/ONOO^− production for LA-419 (1 μM and 5 μM), calculated as:
% Change=[(avg. LA-419−avg. control)/(avg. control)]*100
Finally, an evaluation was undertaken concerning the effect of genotype on the production of NO, ONOO^−, and NO/ONOO^− as the fold difference of control for LA-419 (1 μM and 5 μM), calculated as:
Fold Difference=(avg. LA-419)/(avg. control)
Within each calculation technique the results were compared for statistical significance using a non-parametric ANOVA Kruskal-Wallace test or a non-parametric Mann-Whitney U test. Statistical significance was set at a p-value <0.05 in a two-tailed distribution. […]

[1] = (LA-419 5 μM)/(control), T-786C C/C, n=4
[2] = (LA-419 5 μM)/(control), T-786C T/C & C/C, n=27
[3] = (LA-419 5 μM)/(control), T-786C T/C, n=23
[4] = (LA-419 5 μM)/(control), T-786C T/T & T/C, n=45
[5] = (LA-419 5 μM)/(control), T-786C T/T, n=22
[6] = Caucasian, (LA-419 1 μM)/(control), Combination of all G894T + T-786C genotypes but G/G + T/T, n=19
[7] = Caucasian, (LA-419 1 μM)/(control), G894T + T-786C G/G + T/C, n=3
[8] = Caucasian, (LA-419 1 μM)/(control), G894T + T-786C G/G + T/T, n=7
[9] = Caucasian, (LA-419 1 μM)/(control), G894T + T-786C G/T + T/C, n=10
[10] = Caucasian, (LA-419 1 μM)/(control), G894T + T-786C G/T + T/T, n=3
[11] = Caucasian, (LA-419 1 μM)/(control), G894T + T-786C T/T + T/C, n=2
[12] = Caucasian, (LA-419 1 μM)/(control), G894T G/G, n=10
[13] = Caucasian, (LA-419 1 μM)/(control), G894T G/T & T/T, n=16
[14] = Caucasian, (LA-419 1 μM)/(control), G894T G/T, n=13
[15] = Caucasian, (LA-419 1 μM)/(control), G894T T/T, n=3
[16] = Caucasian, (LA-419 1 μM)/(control), Intron 4 b/a & a/a, n=6
[17] = Caucasian, (LA-419 1 μM)/(control), Intron 4 b/a, n=5
[18] = Caucasian, (LA-419 1 μM)/(control), Intron 4 b/b, n=18
[19] = Caucasian, (LA-419 1 μM)/(control), T-786C T/C & C/C, n=16
[20] = Caucasian, (LA-419 1 μM)/(control), T-786C T/C, n=15
[21] = Caucasian, (LA-419 1 μM)/(control), T-786C T/T, n=10
[22] = Caucasian, (LA-419 5 μM)/(control), Combination of all G894T + T-786C genotypes but G/G + T/T, n=19
[23] = Caucasian, (LA-419 5 μM)/(control), G894T + T-786C G/G + T/C, n=3
[24] = Caucasian, (LA-419 5 μM)/(control), G894T + T-786C G/G + T/T, n=7
[25] = Caucasian, (LA-419 5 μM)/(control), G894T + T-786C G/T + T/C, n=10
[26] = Caucasian, (LA-419 5 μM)/(control), G894T + T-786C G/T + T/T, n=3
[27] = Caucasian, (LA-419 5 μM)/(control), G894T + T-786C T/T + T/C, n=2

## CC(=O)SC1COC2C(O[N+](=O)[O-])COC12 (stereo not drawn) [LA-419, S-(6-Nitro-oxi-hexahydro-furo[3,2-b]furan-3-1-il)thioacetate]
[1]
  Fold difference NO (mean ± sd): 1.12 (0.06)
  Fold difference NO/ONOO− (mean ± sd): 1.42 (0.13)
  Fold difference ONOO− (mean ± sd): 0.79 (0.08)
[2]
  Fold difference NO (mean ± sd): 1.13 (0.07)
  Fold difference NO/ONOO− (mean ± sd): 1.39 (0.13)
  Fold difference ONOO− (mean ± sd): 0.82 (0.06)
[3]
  Fold difference NO (mean ± sd): 1.14 (0.07)
  Fold difference NO/ONOO− (mean ± sd): 1.39 (0.14)
  Fold difference ONOO− (mean ± sd): 0.82 (0.06)
[4]
  Fold difference NO (mean ± sd): 1.15 (0.06)
  Fold difference NO/ONOO− (mean ± sd): 1.44 (0.16)
  Fold difference ONOO− (mean ± sd): 0.81 (0.07)
[5]
  Fold difference NO (mean ± sd): 1.16 (0.06)
  Fold difference NO/ONOO− (mean ± sd): 1.49 (0.18)
  Fold difference ONOO− (mean ± sd): 0.79 (0.08)
[6]
  Fold difference NO (mean ± sd): 1.20 (0.29)
  Fold difference NO/ONOO− (mean ± sd): 1.61 (0.77)
  Fold difference ONOO− (mean ± sd): 0.81 (0.16)
[7]
  Fold difference NO (mean ± sd): 1.13 (0.03)
  Fold difference NO/ONOO− (mean ± sd): 1.27 (0.04)
  Fold difference ONOO− (mean ± sd): 0.89 (0.02)
[8]
  Fold difference NO (mean ± sd): 1.25 (0.12)
  Fold difference NO/ONOO− (mean ± sd): 1.63 (0.72)
  Fold difference ONOO− (mean ± sd): 0.84 (0.22)
[9]
  Fold difference NO (mean ± sd): 1.29 (0.37)
  Fold difference NO/ONOO− (mean ± sd): 1.75 (0.91)
  Fold difference ONOO− (mean ± sd): 0.81 (0.16)
[10]
  Fold difference NO (mean ± sd): 1.08 (0.03)
  Fold difference NO/ONOO− (mean ± sd): 1.21 (0.04)
  Fold difference ONOO− (mean ± sd): 0.90 (0.06)
[11]
  Fold difference NO (mean ± sd): 1.11 (0.36)
  Fold difference NO/ONOO− (mean ± sd): 2.25 (1.17)
  Fold difference ONOO− (mean ± sd): 0.52 (0.11)
[12]
  Fold difference NO (mean ± sd): 1.21 (0.12)
  Fold difference NO/ONOO− (mean ± sd): 1.52 (0.61)
  Fold difference ONOO− (mean ± sd): 0.86 (0.18)
[13]
  Fold difference NO (mean ± sd): 1.21 (0.32)
  Fold difference NO/ONOO− (mean ± sd): 1.68 (0.83)
  Fold difference ONOO− (mean ± sd): 0.79 (0.17)
[14]
  Fold difference NO (mean ± sd): 1.24 (0.33)
  Fold difference NO/ONOO− (mean ± sd): 1.63 (0.82)
  Fold difference ONOO− (mean ± sd): 0.83 (0.15)
[15]
  Fold difference NO (mean ± sd): 1.08 (0.26)
  Fold difference NO/ONOO− (mean ± sd): 1.90 (1.02)
  Fold difference ONOO− (mean ± sd): 0.63 (0.19)
[16]
  Fold difference NO (mean ± sd): 1.25 (0.33)
  Fold difference NO/ONOO− (mean ± sd): 1.52 (0.70)
  Fold difference ONOO− (mean ± sd): 0.86 (0.10)
[17]
  Fold difference NO (mean ± sd): 1.28 (0.35)
  Fold difference NO/ONOO− (mean ± sd): 1.58 (0.77)
  Fold difference ONOO− (mean ± sd): 0.85 (0.12)
[18]
  Fold difference NO (mean ± sd): 1.21 (0.25)
  Fold difference NO/ONOO− (mean ± sd): 1.69 (0.80)
  Fold difference ONOO− (mean ± sd): 0.79 (0.20)
[19]
  Fold difference NO (mean ± sd): 1.22 (0.31)
  Fold difference NO/ONOO− (mean ± sd): 1.69 (0.82)
  Fold difference ONOO− (mean ± sd): 0.79 (0.17)
[20]
  Fold difference NO (mean ± sd): 1.24 (0.32)
  Fold difference NO/ONOO− (mean ± sd): 1.72 (0.84)
  Fold difference ONOO− (mean ± sd): 0.79 (0.17)
[21]
  Fold difference NO (mean ± sd): 1.20 (0.13)
  Fold difference NO/ONOO− (mean ± sd): 1.50 (0.62)
  Fold difference ONOO− (mean ± sd): 0.86 (0.18)
[22]
  Fold difference NO (mean ± sd): 1.13 (0.06)
  Fold difference NO/ONOO− (mean ± sd): 1.37 (0.10)
  Fold difference ONOO− (mean ± sd): 0.83 (0.06)
[23]
  Fold difference NO (mean ± sd): 1.19 (0.02)
  Fold difference NO/ONOO− (mean ± sd): 1.47 (0.08)
  Fold difference ONOO− (mean ± sd): 0.81 (0.03)
[24]
  Fold difference NO (mean ± sd): 1.19 (0.08)
  Fold difference NO/ONOO− (mean ± sd): 1.47 (0.14)
  Fold difference ONOO− (mean ± sd): 0.81 (0.04)
[25]
  Fold difference NO (mean ± sd): 1.11 (0.05)
  Fold difference NO/ONOO− (mean ± sd): 1.33 (0.06)
  Fold difference ONOO− (mean ± sd): 0.84 (0.04)
[26]
  Fold difference NO (mean ± sd): 1.14 (0.06)
  Fold difference NO/ONOO− (mean ± sd): 1.39 (0.14)
  Fold difference ONOO− (mean ± sd): 0.83 (0.11)
[27]
  Fold difference NO (mean ± sd): 1.12 (0.09)
  Fold difference NO/ONOO− (mean ± sd): 1.29 (0.01)
  Fold difference ONOO− (mean ± sd): 0.87 (0.06)
Caucasian, (LA-419 5 μM)/(control), G894T G/G, n=10
  Fold difference NO (mean ± sd): 1.19 (0.07)
